# Where two headings read alike, the source gives them in different places. Peptide text beside a SMILES is read from it.
# Experiments:
# CRF2R = target: T1, CRF2R (Homo sapiens, UniProt Q13324); test: CRF2R agonist activation (EC50 / Emax), called comparative CRF binding; format: cell-based
# T1 sequence (Q13324 1-411): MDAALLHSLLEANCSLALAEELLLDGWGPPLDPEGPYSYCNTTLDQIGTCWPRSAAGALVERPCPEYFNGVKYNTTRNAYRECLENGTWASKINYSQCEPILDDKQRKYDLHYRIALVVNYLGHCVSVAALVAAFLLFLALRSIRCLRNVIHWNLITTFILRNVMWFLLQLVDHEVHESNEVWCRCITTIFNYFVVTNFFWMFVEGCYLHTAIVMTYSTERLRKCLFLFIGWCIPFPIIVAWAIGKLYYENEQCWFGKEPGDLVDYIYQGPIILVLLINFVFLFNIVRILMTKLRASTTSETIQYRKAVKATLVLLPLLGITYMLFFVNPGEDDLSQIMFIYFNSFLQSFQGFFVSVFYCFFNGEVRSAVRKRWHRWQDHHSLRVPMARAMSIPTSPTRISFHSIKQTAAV
# Summary of the method: (§1)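 Cells expressing human CRF1R or CRF2R are exposed to peptide or vehicle control, and receptor activation is read as cAMP induction, measured in cell lysates or via a CRE-linked reporter gene.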
# CRF1R = target: T2, CRF1R (Homo sapiens, UniProt P34998); test: CRF1R agonist activation (EC50 / Emax), called comparative CRF binding; format: cell-based
# T2 sequence (P34998 24-415): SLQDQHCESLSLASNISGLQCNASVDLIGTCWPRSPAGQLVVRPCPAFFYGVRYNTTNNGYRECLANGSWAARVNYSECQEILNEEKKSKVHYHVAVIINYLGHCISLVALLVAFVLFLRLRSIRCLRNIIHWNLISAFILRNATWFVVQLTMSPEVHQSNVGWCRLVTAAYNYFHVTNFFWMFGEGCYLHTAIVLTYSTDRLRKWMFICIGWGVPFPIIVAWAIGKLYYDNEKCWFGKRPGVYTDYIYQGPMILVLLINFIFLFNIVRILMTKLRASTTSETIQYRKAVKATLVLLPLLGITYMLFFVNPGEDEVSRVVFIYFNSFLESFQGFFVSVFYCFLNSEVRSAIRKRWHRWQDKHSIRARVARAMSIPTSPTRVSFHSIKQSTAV
# Summary of the method: as §1
Structure (SMILES),Emax (CRF2R; read-out: CRF2R Emax) [%],Emax (CRF1R; read-out: CRF1R Emax) [%],EC50 (CRF2R; read-out: CRF2R EC50) [µM],EC50 (CRF1R; read-out: CRF1R EC50) [µM],"Emax (CRF2R; read-out: CRF2R (Emax %), Emax) [%]","Emax (CRF1R; read-out: CRF1R (Emax %), Emax) [%]",EC50 (CRF2R) [µM],EC50 (CRF1R; CRF1R EC50) [µM]
CC[C@H](C)[C@H](NC(=O)[C@H](CCCNC(=N)N)NC(=O)[C@H](C)NC(=O)[C@H](CC(N)=O)NC(=O)[C@H](CCC(N)=O)NC(=O)[C@H](CCC(=O)O)NC(=O)[C@H](C)NC(=O)[C@H](CCCNC(=N)N)NC(=O)[C@H](CCC(=O)O)NC(=O)[C@H](CCCNC(=N)N)NC(=O)[C@H](CCC(N)=O)NC(=O)[C@H](CO)NC(=O)[C@H](CCC(N)=O)NC(=O)[C@@H](NC(=O)[C@H](CCCCN)NC(=O)[C@H](CCC(=O)O)NC(=O)[C@H](CC(C)C)NC(=O)[C@H](CCC(=O)O)NC(=O)[C@H](CC(C)C)NC(=O)[C@H](CC(C)C)NC(=O)[C@@H](NC(=O)[C@H](CCCNC(=N)N)NC(=O)[C@H](CC(C)C)NC(=O)[C@H](CC(C)C)NC(=O)[C@@H](NC(=O)[C@H](CC(C)C)NC(=O)[C@@H]1CCCN1C(=O)[C@H](CC(C)C)NC(=O)[C@H](CC(=O)O)NC(=O)[C@@H](NC(=O)[C@H](CO)NC(=O)[C@H](CC(C)C)NC(=O)[C@H](CO)NC(=O)[C@@H]1CCCN1)[C@@H](C)CC)[C@@H](C)CC)[C@@H](C)O)[C@@H](C)O)C(=O)N[C@@H](Cc1ccccc1)C(=O)N[C@@H](C)C(=O)N[C@@H](CCCNC(=N)N)C(=O)N[C@H](C(N)=O)C(C)C [compound 332] (H-PSLSIDLPLILLRTLLELEKTQSQRERAEQNARIFARV-NH2; N-terminus assumed),100,61.3,,,,,,
CC[C@H](C)[C@H](NC(=O)[C@H](C)NC(=O)[C@H](CC(N)=O)NC(=O)[C@H](CCC(N)=O)NC(=O)[C@H](CCC(=O)O)NC(=O)[C@H](C)NC(=O)[C@H](CCCNC(=N)N)NC(=O)[C@H](CCC(=O)O)NC(=O)[C@H](CCCNC(=N)N)NC(=O)[C@H](CCC(N)=O)NC(=O)[C@H](CO)NC(=O)[C@H](CCC(N)=O)NC(=O)[C@@H](NC(=O)[C@H](CCCNC(=N)N)NC(=O)[C@H](C)NC(=O)[C@H](CC(C)C)NC(=O)[C@H](CCC(=O)O)NC(=O)[C@H](CC(C)C)NC(=O)[C@H](CC(C)C)NC(=O)[C@@H](NC(=O)[C@H](CCCNC(=N)N)NC(=O)[C@H](CC(C)C)NC(=O)[C@H](CC(C)C)NC(=O)[C@H](Cc1c[nH]cn1)NC(=O)[C@H](CC(C)C)NC(=O)[C@@H]1CCCN1C(=O)[C@H](CC(C)C)NC(=O)[C@H](CC(=O)O)NC(=O)[C@@H](NC(=O)[C@H](CO)NC(=O)[C@H](CC(C)C)NC(=O)[C@H](CO)NC(=O)[C@@H]1CCCN1C(=O)[C@H](CC(N)=O)NC(=O)[C@@H](N)CC(=O)O)[C@@H](C)CC)[C@@H](C)O)[C@@H](C)O)C(=O)N[C@H](C(=O)N[C@@H](Cc1ccccc1)C(=O)N[C@@H](C)C(=O)N[C@@H](CO)C(=O)N[C@H](C(N)=O)C(C)C)[C@@H](C)CC [compound 179] (H-DNPSLSIDLPLHLLRTLLELARTQSQRERAEQNAIIFASV-NH2; N-terminus assumed),92.5,78.9,,,,,,
CC[C@H](C)[C@H](N)C(=O)N[C@H](C(=O)N[C@@H](CC(C)C)C(=O)N[C@@H](CO)C(=O)N[C@@H](CC(C)C)C(=O)N[C@@H](CC(=O)O)C(=O)N[C@H](C(=O)N1CCC[C@H]1C(=O)N[C@H](C(=O)NCC(=O)N[C@@H](CC(C)C)C(=O)N[C@@H](CC(C)C)C(=O)N[C@@H](CCC(N)=O)C(=O)N[C@H](C(=O)N[C@@H](CC(C)C)C(=O)N[C@@H](CC(C)C)C(=O)N[C@@H](CCC(=O)O)C(=O)N[C@@H](CCC(N)=O)C(=O)N[C@@H](C)C(=O)N[C@@H](C)C(=O)N[C@@H](C)C(=O)N[C@@H](CCCNC(=N)N)C(=O)N[C@@H](CCC(=O)O)C(=O)N[C@@H](CCC(N)=O)C(=O)N[C@@H](C)C(=O)N[C@H](C(=O)N[C@H](C(=O)N[C@@H](CC(N)=O)C(=O)N[C@@H](C)C(=O)N[C@@H](CCCNC(=N)N)C(=O)N[C@H](C(=O)N[C@@H](CC(C)C)C(=O)N[C@@H](C)C(=O)N[C@@H](CCCNC(=N)N)C(=O)N[C@H](C(N)=O)C(C)C)[C@@H](C)CC)[C@@H](C)O)[C@@H](C)O)[C@@H](C)CC)[C@@H](C)CC)C(C)C)C(C)C [compound 139] (H-IVLSLDVPIGLLQILLEQAAAREQATTNARILARV-NH2; N-terminus assumed),60,4,0.0426,> 0.1,,,,
"CC[C@H](C)[C@H](NC(=O)[C@H](CO)NC(=O)[C@H](CC(C)C)NC(=O)[C@H](CO)NC(=O)[C@@H]1CCCN1C(=O)[C@H](CC(N)=O)NC(=O)[C@@H](N)CC(=O)O)C(=O)N[C@@H](CC(=O)O)C(=O)N[C@@H](CC(C)C)C(=O)N[C@H](C(=O)N[C@@H](Cc1ccccc1)C(=O)N[C@@H](Cc1c[nH]cn1)C(=O)N[C@@H](CC(C)C)C(=O)N[C@@H](CC(C)C)C(=O)N[C@@H](CCCNC(=N)N)C(=O)N[C@H](C(=O)N[C@@H](CC(C)C)C(=O)N[C@@H](CC(C)C)C(=O)N[C@@H](CCC(=O)O)C(=O)N[C@@H](CC(C)C)C(=O)N[C@@H](C)C(=O)N[C@@H](CCCNC(=N)N)C(=O)N[C@H](C(=O)N[C@@H](CCC(N)=O)C(=O)N[C@@H](CO)C(=O)N[C@@H](CCC(N)=O)C(=O)N[C@@H](CCCNC(=N)N)C(=O)N[C@@H](CCC(=O)O)C(=O)N[C@@H](CCCNC(=N)N)C(=O)N[C@@H](C)C(=O)N[C@@H](CCC(=O)O)C(=O)N[C@@H](CCC(N)=O)C(=O)N[C@@H](CC(N)=O)C(=O)N[C@@H](CCCNC(=N)N)C(=O)N[C@H](C(=O)N[C@H](C(=O)N[C@@H](Cc1ccccc1)C(=O)N[C@@H](CC(=O)O)C(=O)N[C@@H](CO)C(=O)N[C@H](C(N)=O)C(C)C)[C@@H](C)CC)[C@@H](C)CC)[C@@H](C)O)[C@@H](C)O)[C@@H](C)O [hUcnI, human urocortin I, reference compound] (H-DNPSLSIDLTFHLLRTLLELARTQSQRERAEQNRIIFDSV-NH2)",,,,,100,100,,
CC[C@H](C)[C@H](N)C(=O)N[C@H](C(=O)N[C@@H](CC(C)C)C(=O)N[C@@H](CO)C(=O)N[C@@H](CC(C)C)C(=O)N[C@@H](CC(=O)O)C(=O)N[C@H](C(=O)N1CCC[C@H]1C(=O)N[C@H](C(=O)NCC(=O)N[C@@H](CC(C)C)C(=O)N[C@@H](CC(C)C)C(=O)N[C@@H](CCC(N)=O)C(=O)N[C@@H](CCCCN)C(=O)N[C@@H](CCSC)C(=O)N[C@H](C(=O)N[C@@H](CCC(=O)O)C(=O)N[C@H](C(=O)N[C@@H](CCC(=O)O)C(=O)N[C@@H](CCCCN)C(=O)N[C@@H](CCC(N)=O)C(=O)N[C@@H](CCC(=O)O)C(=O)N[C@@H](CCCCN)C(=O)N[C@@H](CCC(=O)O)C(=O)N[C@@H](CCCCN)C(=O)N[C@@H](CCC(N)=O)C(=O)N[C@@H](CCC(N)=O)C(=O)N[C@@H](C)C(=O)N[C@H](C(=O)N[C@H](C(=O)N[C@@H](CC(N)=O)C(=O)N[C@@H](C)C(=O)N[C@@H](CCCNC(=N)N)C(=O)N[C@H](C(=O)N[C@@H](CC(C)C)C(=O)N[C@@H](C)C(=O)N[C@@H](CCCNC(=N)N)C(=O)N[C@H](C(N)=O)C(C)C)[C@@H](C)CC)[C@@H](C)O)[C@@H](C)O)[C@@H](C)CC)[C@@H](C)CC)[C@@H](C)CC)C(C)C)C(C)C [compound 322] (H-IVLSLDVPIGLLQKMIEIEKQEKEKQQATTNARILARV-NH2; N-terminus assumed),96.5,10.7,,,,,0.0231,≥ 1
CC[C@H](C)[C@H](N)C(=O)N[C@H](C(=O)N[C@@H](CC(C)C)C(=O)N[C@@H](CO)C(=O)N[C@@H](CC(C)C)C(=O)N[C@@H](CC(=O)O)C(=O)N[C@H](C(=O)N1CCC[C@H]1C(=O)N[C@H](C(=O)NCC(=O)N[C@@H](CC(C)C)C(=O)N[C@@H](CC(C)C)C(=O)N[C@@H](CCC(N)=O)C(=O)N[C@H](C(=O)N[C@@H](CC(C)C)C(=O)N[C@H](C(=O)N[C@@H](CCC(=O)O)C(=O)N[C@H](C(=O)N[C@@H](CCC(=O)O)C(=O)N[C@@H](CCCCN)C(=O)N[C@@H](CCC(N)=O)C(=O)N[C@@H](CCC(=O)O)C(=O)N[C@@H](CCCCN)C(=O)N[C@@H](CCC(=O)O)C(=O)N[C@@H](CCCCN)C(=O)N[C@@H](CCC(N)=O)C(=O)N[C@@H](CCC(N)=O)C(=O)N[C@@H](C)C(=O)N[C@@H](C)C(=O)N[C@H](C(=O)N[C@H](C(=O)N[C@@H](CC(N)=O)C(=O)N[C@@H](C)C(=O)N[C@@H](CCCNC(=N)N)C(=O)N[C@H](C(=O)N[C@@H](CC(C)C)C(=O)N[C@@H](C)C(=O)N[C@@H](CCCNC(=N)N)C(=O)N[C@H](C(N)=O)C(C)C)[C@@H](C)CC)[C@@H](C)O)[C@@H](C)O)[C@@H](C)CC)[C@@H](C)CC)[C@@H](C)CC)[C@@H](C)CC)C(C)C)C(C)C [compound 168] (H-IVLSLDVPIGLLQILIEIEKQEKEKQQAATTNARILARV-NH2; N-terminus assumed),75,52,0.0049,≥ 1,,,,
